# Values quoted from earlier work as cited in patent US11697638B2, “5-methoxy-N,N-dimethyltryptamine crystalline forms” (Small Pharma Ltd, priority 2021, dated 2023).
# Where two headings read alike, the source gives them in different places.
# Conditions: self-report, uncontrolled setting
compound,measurement,setting,value
"COc1ccc2[nH]cc(CCN(C)C)c2c1 [5-MeO-DMT, 5-methoxy-N,N-dimethyltryptamine]",participants with psychiatric diagnoses indicating that their symptoms improved following 5-MeO-DMT use,anxiety,69%
same,participants with psychiatric diagnoses indicating that their symptoms improved following 5-MeO-DMT use,depression,77%
same,participants with psychiatric diagnoses indicating that their symptoms improved following 5-MeO-DMT use,post-traumatic stress disorder,79%
